Assay results as given in ChEMBL document CHEMBL3580594, “Synthesis and biological evaluation of 4-substituted fluoronucleoside analogs for the treatment of hepatitis B virus infection” (J Med Chem, 2015).

Assays:
Rattus norvegicus [1] = experiment: In vivo drug metabolism in rat urine sample assessed as 1-((2R,3S,4R,5R)-5-azido-3-fluoro-4-hydroxy-5-(hydroxymethyl)tetrahydrofuran-2-yl)-4-(2-hydroxycyclopropylamino)pyrimidin-2(1H)-one formation by LC-MS/MS analysis; assay type: ADME, organism-based
Hepatitis B virus [2] = experiment: Antiviral activity against Hepatitis B virus in HepG2.2.15 cells assessed as inhibition of intracellular viral DNA replication at 5 uM after 3 days by real-time FQ-PCR analysis; assay type: functional; conditions: HepG2 2.2.15, 72 h
Duck hepatitis B virus [3] = experiment: Antiviral activity against duck Hepatitis B virus infected in duck assessed as inhibition of viral DNA replication in liver at 0.2 mg/kg/day, po measured after 3 days of treatment withdrawal; assay type: functional; conditions: 72 h
Duck hepatitis B virus [4] = experiment: Antiviral activity against duck Hepatitis B virus infected in po dosed duck assessed as inhibition of viral DNA replication in liver; assay type: functional, organism-based
Mus musculus [5] = experiment: Toxicity in KM mouse assessed as peripheral WBC number in blood per liter at 80 mg/kg, po single dose after 48 hrs (reference value: 11.10 x 2.69/L x 10^-9); assay type: organism-based; conditions: in vivo
Hepatitis B virus [6] = experiment: Antiviral activity against Hepatitis B virus in HepG2.CW cells assessed as inhibition of viral DNA replication at 1 uM after 9 days by real-time FQ-PCR analysis; assay type: functional; conditions: 216 h
Duck hepatitis B virus [7] = experiment: Antiviral activity against duck Hepatitis B virus infected in duck assessed as inhibition of viral DNA replication in serum at 0.2 mg/kg/day, po treatment initiated at day 5 after infection relative to control; assay type: functional; conditions: 120 h
Duck hepatitis B virus [8] = experiment: Antiviral activity against duck Hepatitis B virus infected in duck assessed as inhibition of viral DNA replication in serum at 0.04 mg/kg/day, po treatment initiated at day 10 after infection relative to control; assay type: functional; conditions: 240 h
Mus musculus [9] = experiment: Toxicity in KM mouse assessed as micronucleus frequency in bone marrow polychromatic erythrocyte at 20 mg/kg, po single dose after 48 hrs (reference value: 2.20 +/- 0.84 %); assay type: organism-based; conditions: in vivo
Duck hepatitis B virus [10] = experiment: Antiviral activity against duck Hepatitis B virus infected in duck assessed as inhibition of viral DNA replication in liver at 0.04 to 20 mg/kg, po; assay type: functional, organism-based; conditions: TDE = time-dependent effect
Mus musculus [11] = experiment: Toxicity in KM mouse assessed as micronucleus frequency in bone marrow polychromatic erythrocyte at 80 mg/kg, po single dose after 48 hrs (reference value: 2.20 +/- 0.84 %); assay type: organism-based; conditions: in vivo
Hepatitis B virus [12] = experiment: Antiviral activity against Hepatitis B virus in HepG2.2.15 cells assessed as inhibition of intracellular viral DNA replication at 0.2 uM after 9 days by real-time FQ-PCR analysis; assay type: functional; conditions: HepG2 2.2.15, 216 h
Hepatitis B virus [13] = experiment: Antiviral activity against Hepatitis B virus in HepG2.2.15 cells assessed as inhibition of extracellular viral DNA replication at 5 uM after 6 days by real-time FQ-PCR analysis; assay type: functional; conditions: HepG2 2.2.15, 144 h
Hepatitis B virus [14] = experiment: Antiviral activity against Hepatitis B virus in HepG2.2.15 cells assessed as inhibition of intracellular viral DNA replication at 1 uM after 9 days by real-time FQ-PCR analysis; assay type: functional; conditions: HepG2 2.2.15, 216 h
Mus musculus [15] = experiment: Acute toxicity in KM mouse assessed as listlessness at 300 mg/kg, iv suspended in normal saline; assay type: organism-based; conditions: in vivo
Hepatitis B virus [16] = experiment: Antiviral activity against Hepatitis B virus in HepG2.2.15 cells assessed as inhibition of intracellular/extracellular viral DNA replication after 3 to 9 days by real-time FQ-PCR analysis; assay type: functional, organism-based; conditions: HepG2 2.2.15
Duck hepatitis B virus [17] = experiment: Antiviral activity against duck Hepatitis B virus infected in duck assessed as inhibition of viral DNA replication in liver at 1 mg/kg/day, po measured after 3 days of treatment withdrawal; assay type: functional; conditions: 72 h
Duck hepatitis B virus [18] = experiment: Antiviral activity against duck Hepatitis B virus infected in duck assessed as inhibition of viral DNA replication in serum at 0.04 mg/kg/day, po measured after 3 days of treatment withdrawal; assay type: functional; conditions: 72 h
Duck hepatitis B virus [19] = experiment: Antiviral activity against duck Hepatitis B virus infected in duck assessed as inhibition of viral DNA replication in serum at 1 mg/kg/day, po treatment initiated at day 5 after infection relative to control; assay type: functional; conditions: 120 h
Hepatitis B virus [20] = experiment: Antiviral activity against Hepatitis B virus in HepG2.2.15 cells assessed as inhibition of intracellular viral DNA replication at 1 uM after 6 days by real-time FQ-PCR analysis; assay type: functional; conditions: HepG2 2.2.15, 144 h
Hepatitis B virus [21] = experiment: Antiviral activity against Hepatitis B virus in HepG2.2.15 cells assessed as inhibition of intracellular viral DNA replication at 5 uM after 9 days by real-time FQ-PCR analysis; assay type: functional; conditions: HepG2 2.2.15, 216 h
Duck hepatitis B virus [22] = experiment: Antiviral activity against duck Hepatitis B virus infected in duck assessed as inhibition of viral DNA replication in liver at 0.2 mg/kg/day, po treatment initiated at day 10 after infection relative to control; assay type: functional; conditions: 240 h
Rattus norvegicus [23] = organism: Rattus norvegicus; experiment: Drug metabolism in rat urine sample assessed as 4-amino-1-((2R,3S,4R,5R)-5-azido-3-fluoro-4-hydroxy-5-(hydroxymethyl)tetrahydrofuran-2-yl)pyrimidin-2(1H)-one formation by LC-MS/MS analysis; assay type: ADME, organism-based; conditions: in vivo
Mus musculus [24] = experiment: Toxicity in KM mouse assessed as peripheral WBC number in blood per liter at 40 mg/kg, po single dose after 48 hrs (reference value: 11.10 x 2.69/L x 10^-9); assay type: organism-based; conditions: in vivo
Hepatitis B virus [25] = experiment: Antiviral activity against Hepatitis B virus in HepG2.2.15 cells assessed as inhibition of intracellular viral DNA replication at 0.2 uM after 6 days by real-time FQ-PCR analysis; assay type: functional; conditions: HepG2 2.2.15, 144 h
Mus musculus [26] = experiment: Toxicity in KM mouse assessed as peripheral WBC number in blood per liter at 20 mg/kg, po single dose after 48 hrs (reference value: 11.10 x 2.69/L x 10^-9 cells); assay type: organism-based; conditions: in vivo
Mus musculus [27] = experiment: Toxicity in KM mouse assessed as micronucleus frequency in bone marrow polychromatic erythrocyte at 10 mg/kg, po single dose after 48 hrs (reference value: 1.20 +/- 0.45 %); assay type: organism-based; conditions: in vivo
Mus musculus [28] = experiment: Toxicity in KM mouse assessed as peripheral WBC number in blood per liter at 10 mg/kg/day, po 5 doses (reference value: 7.47 +/- 33.77 /L x 10^-9 cells); assay type: organism-based; conditions: in vivo
Hepatitis B virus [29] = experiment: Antiviral activity against Hepatitis B virus in HepG2.2.15 cells assessed as inhibition of intracellular viral DNA replication at 1 uM after 3 days by real-time FQ-PCR analysis; assay type: functional; conditions: HepG2 2.2.15, 72 h
Mus musculus [30] = experiment: Toxicity in KM mouse assessed as micronucleus frequency in bone marrow polychromatic erythrocyte at 5 mg/kg, po single dose after 48 hrs (reference value: 1.20 +/- 0.45 %); assay type: organism-based; conditions: in vivo
Duck hepatitis B virus [31] = experiment: Antiviral activity against duck Hepatitis B virus infected in duck assessed as inhibition of viral DNA replication in liver at 0.2 mg/kg/day, po treatment initiated at day 5 after infection relative to control; assay type: functional; conditions: 120 h
Hepatitis B virus [32] = experiment: Antiviral activity against Hepatitis B virus in HepG2.2.15 cells assessed as inhibition of extracellular viral DNA replication at 0.2 uM after 9 days by real-time FQ-PCR analysis; assay type: functional; conditions: HepG2 2.2.15, 216 h
Duck hepatitis B virus [33] = experiment: Antiviral activity against duck Hepatitis B virus infected in duck assessed as inhibition of viral DNA replication in serum at 0.2 mg/kg/day, po measured after 3 days of treatment withdrawal; assay type: functional; conditions: 72 h

With `[N-]=[N+]=N[C@]1(CO)O[C@@H](n2ccc(NC3CC3)nc2=O)[C@@H](F)[C@@H]1O` the Drug metabolism (Rattus norvegicus [1]) was “metabolite_detected”, the inhibition at 5 µM (Hepatitis B virus [2]) was 46.2% and the inhibition in vivo at 0.2 mg/kg/day (Duck hepatitis B virus [3]) was 63.1%. The inhibition (Duck hepatitis B virus [4]) was “Dose-dependent effect”, the Activity (Mus musculus [5]) was 8.26 ×10⁹ /L and the inhibition at 1 µM (Hepatitis B virus [6]) was 86.6%. It also gave an inhibition in vivo at 0.2 mg/kg/day (Duck hepatitis B virus [7]) of 62.5%, an inhibition in vivo at 0.04 mg/kg/day (Duck hepatitis B virus [8]) of 43.4% and an Activity (Mus musculus [9]) of 1.6%. The inhibition (Duck hepatitis B virus [10]) was “tde”, the Activity (Mus musculus [11]) was 1.8% and the inhibition at 0.2 µM (Hepatitis B virus [12]) was 46.5%. For the same molecule, the inhibition at 5 µM (Hepatitis B virus [13]) was 84%, the inhibition at 1 µM (Hepatitis B virus [14]) was 56.9% and the Activity (Mus musculus [15]) was “Toxic”. For the same molecule, the inhibition (Hepatitis B virus [16]) was “Dose-dependent effect”, the inhibition in vivo at 1 mg/kg/day (Duck hepatitis B virus [17]) was 76.1% and the inhibition in vivo at 0.04 mg/kg/day (Duck hepatitis B virus [18]) was 47.1%. For the same molecule, the inhibition in vivo at 1 mg/kg/day (Duck hepatitis B virus [19]) was 71.9%, the inhibition at 1 µM (Hepatitis B virus [20]) was 49.5% and the inhibition at 5 µM (Hepatitis B virus [21]) was 68.2%. For the same molecule, the inhibition in vivo at 0.2 mg/kg/day (Duck hepatitis B virus [22]) was 68.7%, the Drug metabolism (Rattus norvegicus [23]) was “metabolite_detected” and the Activity (Mus musculus [24]) was 9.13 ×10⁹ /L. It also gave an inhibition at 0.2 µM (Hepatitis B virus [25]) of 31.7%, an Activity (Mus musculus [26]) of 8.84 ×10⁹ /L and an Activity (Mus musculus [27]) of 1.4%. For the same molecule, the Activity (Mus musculus [28]) was 8.09 ×10⁹ /L, the inhibition at 1 µM (Hepatitis B virus [29]) was 39.2% and the Activity (Mus musculus [30]) was 1.2%. For the same molecule, the inhibition in vivo at 0.2 mg/kg/day (Duck hepatitis B virus [31]) was 52.7%, the inhibition at 0.2 µM (Hepatitis B virus [32]) was 52.1% and the inhibition in vivo at 0.2 mg/kg/day (Duck hepatitis B virus [33]) was 66%.
